Measurements as given in patent publication US11406709B2, “Therapeutic and research application of PDCL3” (TRUSTEES OF BOSTON UNIVERSITY, priority 2014, dated 2022).
Counter-ions that a name gives are not always drawn. Residues, ends and D or L forms follow the SMILES beside them. *: point of attachment. Cbz = O=C(OCc1ccccc1)*

What follows are molecules tested on VEGFR-2 (assay: In vitro transcription/translation of VEGFR-2). Conditions: not given.
Format: biochemical
Experimental: FIG. 1A. HEK-293 cells expressing VEGFR-2 were transfected with different concentrations of C-terminus Myc-tagged PDCL3. After 48 hours cells were lysed and whole cell lysates (WCL) were blotted for VEGFR-2, PDCL3 and Hsp70 for loading control. Quantification of premature (newly synthesized and partially glycosylated VEGFR-2 corresponding to lower molecular weight) and mature (fully glycosylated) forms of VEGFR-2 is shown. Mean results of three independent experiments are shown. *P=0.04 and […]. FIG. 1B. Human umbilical vein endothelial cells (HUVECs) were transfected with control siRNA or PDCL3-siRNA. After 48 hours cells serum-starved for overnight followed by stimulation with VEGF for 10 minutes. Cells were lysed and whole cell lysates were blotted for phospho-Y1054-VEGFR-2, total VEGFR-2, PDCL3 and Hsp70 for loading control. FIG. 1C. Thermo-induced aggregation of VEGFR-2 was measured using PSA dye as described in the materials and method section. FIG. 1D. In vitro transcription/translation of VEGFR-2 in the absence or presence of exogenous recombinant PDCL3 was performed as described in the materials and method section and schematic of the procedure is shown. FIG. 1E. In vitro translated VEGFR-2 protein in the absence or presence of exogenous recombinant PDCL3 was blotted for VEGFR-2. FIG. 1F. […]
`CC(C)C[C@@H](C=O)NC(=O)[C@H](CC(C)C)NC(=O)[C@H](CC(C)C)NC(=O)OCc1ccccc1` [MG132] (Cbz-Leu-Leu-Leu-aldehyde) was tested, and the “yield of in vitro translated VEGFR-2” value was “this effect of PDCL3 was further augmented”.

Each molecule was assayed on VEGFR-2 (assay: Cycloheximide-chase / VEGF-induced downregulation of VEGFR-2). Conditions: PAE cells, cycloheximide 20 μg/ml, 90 min.
Format: cell-based
Experimental: FIG. 2A. Illustrated is the schematic of treatment of cells with cycloheximide (CHX) and VEGF. PAE cells co-expressing VEGFR-2 with empty vector (pMSCV) or PDCL3 were incubated with CHX for 90 minutes followed by stimulation with VEGF for indicated times. Whole cell lysates was blotted for VEGFR-2 and loading control protein, PLCγ1. FIG. 2B. Shown are the quantification of the half-life of mature VEGFR-2 and pre-mature VEGFR-2 based on the VEGFR-2 blot from the panel FIG. 2A. FIGS. 2C-2D. PAE cells co-expressing VEGFR-2 with empty vector (pMSCV) or PDCL3 were stimulated with VEGF for indicated times and whole cell lysates were processed as panel FIG. 2A.
PAE cells expressing VEGFR-2 alone or together with PDCL3 were serum-starved for overnight followed by incubation of cells with serum-free DMEM medium containing cycloheximide (20 μg/ml, 90 min). Cells then were stimulated with VEGF for various times to downregulate cell surface VEGFR-2. Cells were lysed and whole cell lysates was blotted for VEGFR-2 using anti-VEGFR-2 antibody. For measuring half-life of PDCL3 and HA-tagged mutant PDCL3, cells were incubated with serum-free DMEM medium containing cycloheximide (20 μg/ml) for indicated times and cells were lysed and whole cell lysates was blotted for PDCL3.
For `C[C@@H]1C[C@@H]([C@H](O)CC2CC(=O)NC(=O)C2)C(=O)[C@@H](C)C1` [Cycloheximide], the VEGFR-2 protein synthesis was “inhibited VEGFR-2 protein synthesis”.

The molecules below were run against T1, PDCL3 (Homo sapiens, UniProt Q9H2J4) (assay: High throughput screening of LOPAC1280 for small molecule inhibitors of PDCL3). Conditions: LOPAC1280, 1,280 pharmacologically active compounds.
T1 sequence (Q9H2J4 1-239): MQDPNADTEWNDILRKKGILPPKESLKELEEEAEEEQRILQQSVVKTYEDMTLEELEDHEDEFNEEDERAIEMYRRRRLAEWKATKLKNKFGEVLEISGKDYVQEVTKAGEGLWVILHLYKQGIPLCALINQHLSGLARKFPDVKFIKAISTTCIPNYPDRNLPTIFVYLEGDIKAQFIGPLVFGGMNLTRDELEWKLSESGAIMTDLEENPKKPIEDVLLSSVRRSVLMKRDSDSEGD
Description: (§1) Given that PDCL3 plays a fundamental role in maturation and folding of receptor tyrosine kinases (RTKs), such as VEGFR-2, and considering that activity of these RTKs are cornerstone of tumor growth and metastasis, it was decided to screen for small molecule inhibitors that could antagonize PDCL3 function in tumor cells. LOPAC1280 (a library of Pharmacologically Active Compounds), which is a collection of 1,280 pharmacologically active compounds, was used. The library is most commonly used to validate new drug discovery assays and characterize orphan targets. 16 lead compounds were identified as PDCL3 inhibitors and their potency and efficacy in inhibition of PDCL3 was validated. The structures of these 16 lead compounds, namely, Reserpine, DAPH, AC-93253 iodide, Emodin, Sunitinib malate, GW2974, Urapidil Hydrochloride, Mecamylamine hydrochloride, (−)-MK-801 hydrogen maleate, AGK2, Tyrphostin AG 112, Tyrphostin 23, Tyrphostin 51, I-Ome-Tyrophostin AG 538, and Isoliquiritgenin are provided herein at FIG. 14B.
as §1, with “validated. […] Chemical formulas for” for “validated. The structures of”, “these compounds” for “these 16 lead compounds, namely, Reserpine, DAPH, AC-93253 iodide, Emodin, Sunitinib malate, GW2974, Urapidil Hydrochloride, Mecamylamine hydrochloride, (−)-MK-801 hydrogen maleate, AGK2, Tyrphostin AG 112, Tyrphostin 23, Tyrphostin 51, I-Ome-Tyrophostin AG 538, and Isoliquiritgenin”, “herein in” for “herein at”
`CCN(CC)CCNC(=O)c1c(C)[nH]c(/C=C2\C(=O)Nc3ccc(F)cc32)c1C.O=C(O)C[C@H](O)C(=O)O` [Sunitinib malate, (2S)-2-Hydroxysuccinic acid-N-[2-(diethylamino)ethyl]-5-[(Z)-(5-fluoro-2-oxo-1,2-dihydro-3H-indol-3-ylidene)methyl]-2,4-dimethyl-1H-pyrrole-3-carboxamide (1:1)] was tested, and the “identified as PDCL3 inhibitor / specifically targeting PDCL3” value was “identified as specifically targeting PDCL3”. `Cc1cc(O)c2c(c1)C(=O)c1cc(O)cc(O)c1C2=O` [Emodin, 1,3,8-Trihydroxy-6-methyl-9,10-anthraquinone] was tested, and the “identified as PDCL3 inhibitor / specifically targeting PDCL3” value was “identified as specifically targeting PDCL3”. `COC(=O)[C@H]1[C@H]2C[C@@H]3c4[nH]c5cc(OC)ccc5c4CCN3C[C@H]2C[C@@H](OC(=O)c2cc(OC)c(OC)c(OC)c2)[C@@H]1OC` [Reserpine, Methyl (3β,16β,17α,18β,20α)-11,17-dimethoxy-18-[(3,4,5-trimethoxybenzoyl)oxy]yohimban-16-carboxylate] was tested, and the “identified as PDCL3 inhibitor / specifically targeting PDCL3” value was “identified as specifically targeting PDCL3”. `O=C1NC(=O)c2cc(Nc3ccccc3)c(Nc3ccccc3)cc21` [DAPH, 5,6-Dianilino-1H-isoindole-1,3(2H)-dione] was tested, and the “identified as PDCL3 inhibitor / specifically targeting PDCL3” value was “identified as specifically targeting PDCL3”. `CC[n+]1c(/C=C/C=C2/N(C)c3ccccc3C2(C)C)sc2ccccc21.[I-]` [AC-93253 iodide, 3-Ethyl-2-[(1E,3E)-3-(1,3,3-trimethyl-1,3-dihydro-2H-indol-2-ylidene)-1-propen-1-yl]-1,3-benzothiazol-3-ium iodide] was tested, and the “identified as PDCL3 inhibitor / specifically targeting PDCL3” value was “identified as specifically targeting PDCL3”. `N#C/C(=C\c1ccc(-c2cc(Cl)ccc2Cl)o1)C(=O)Nc1cccc2ncccc12` [AGK2, (2E)-2-Cyano-3-[5-(2,5-dichlorophenyl)-2-furyl]-N-(5-quinolinyl)acrylamide] was tested, and the “identified as PDCL3 inhibitor / specifically targeting PDCL3” value was “identified as specifically targeting PDCL3”. For `N#CC(C#N)=C(N)/C(C#N)=C/c1cc(O)c(O)c(O)c1` [Tyrphostin 51, (3Z)-2-Amino-4-(3,4,5-trihydroxyphenyl)-1,3-butadiene-1,1,3-tricarbonitrile], the “identified as PDCL3 inhibitor / specifically targeting PDCL3” value was “identified as specifically targeting PDCL3”. With `CC12NC(Cc3ccccc31)c1ccccc12.O=C(O)/C=C/C(=O)O` (single isomer, unassigned; (-)) [(−)-MK-801 hydrogen maleate, 1-Methyl-16-azatetracyclo[7.6.1.02,7.010,15]hexadeca-2,4,6,10,12,14-hexaene (2E)-2-butenedioate (1:1)] the “identified as PDCL3 inhibitor / specifically targeting PDCL3” value was “identified as specifically targeting PDCL3”. With `N#CC(C#N)=Cc1ccc(O)c(O)c1` [Tyrphostin 23, (3,4-Dihydroxybenzylidene)malononitrile] the “identified as PDCL3 inhibitor / specifically targeting PDCL3” value was “identified as specifically targeting PDCL3”. With `O=C(/C=C/c1ccc(O)cc1)c1ccc(O)cc1O` [Isoliquiritgenin, (E)-1-(2,4-dihydroxyphenyl)-3-(4-hydroxyphenyl)prop-2-en-1-one] the “identified as PDCL3 inhibitor / specifically targeting PDCL3” value was “identified as specifically targeting PDCL3”. For `CN(C)c1cc2c(Nc3ccc4c(cnn4Cc4ccccc4)c3)ncnc2cn1` [GW2974, N4-(1-Benzyl-1H-indazol-5-yl)-N6,N6-dimethylpyrido[3,4-d]pyrimidine-4,6-diamine], the “identified as PDCL3 inhibitor / specifically targeting PDCL3” value was “identified as specifically targeting PDCL3”. `CNC1(C)C2CCC(C2)C1(C)C.Cl` (centres unmarked) [Mecamylamine hydrochloride, N,2,3,3-Tetramethylbicyclo[2.2.1]heptan-2-amine hydrochloride (1:1)] was tested, and the “identified as PDCL3 inhibitor / specifically targeting PDCL3” value was “identified as specifically targeting PDCL3”. With `COc1ccccc1N1CCN(CCCNc2cc(=O)n(C)c(=O)n2C)CC1` [Urapidil Hydrochloride, 6-({3-[4-(2-Methoxyphenyl)-1-piperazinyl]propyl}amino)-1,3-dimethyl-2,4(1H,3H)-pyrimidinedione] the “identified as PDCL3 inhibitor / specifically targeting PDCL3” value was “identified as specifically targeting PDCL3”. For `COc1cc(C=C(C#N)C(=O)c2ccc(O)c(O)c2)cc(I)c1O` [I-Ome-Tyrophostin AG 538, α-Cyano-(3-methoxy-4-hydroxy-5-iodocinnamoyl)-(3′,4′-dihydroxyphenyl)ketone], the “identified as PDCL3 inhibitor / specifically targeting PDCL3” value was “identified as specifically targeting PDCL3”. With `N#CC(C#N)=C(N)/C(C#N)=C/c1ccc(O)cc1` [Tyrphostin AG 112, (3Z)-2-Amino-4-(4-hydroxyphenyl)-1,3-butadiene-1,1,3-tricarbonitrile] the “identified as PDCL3 inhibitor / specifically targeting PDCL3” value was “identified as specifically targeting PDCL3”.
